Laboratory results reported in ChEMBL document CHEMBL4422688, “(+)- and (-)-Alternarilactone A: Enantiomers with a Diepoxy-Cage-like Scaffold from an Endophytic Alternaria sp” (J Nat Prod, 2019).
The source made the active and inactive calls. The rule behind the calls is not given here.

Columns and labels:
Gaeumannomyces graminis = experiment: Antifungal activity against Gaeumannomyces graminis incubated for 48 hrs; format: functional, organism-based
PC-12 = experiment: Cytoprotective activity against corticosterone-induced apoptosis in rat PC12 cells incubated for 24 hrs by MTS assay; format: functional, cell-based
Salmonella typhi = experiment: Antibacterial activity against Salmonella typhi assessed as inhibition of microbial growth incubated for 12 hrs by microdilution method; format: functional, organism-based; settings: Salmonella enterica subsp. enterica serovar Typhi
Staphylococcus aureus = experiment: Antibacterial activity against Staphylococcus aureus assessed as inhibition of microbial growth incubated for 12 hrs by microdilution method; format: functional, organism-based
Verticillium = experiment: Antifungal activity against Verticillium cinnabarinum incubated for 48 hrs; format: functional

COc1cc(O)c2c(c1)[C@]13O[C@@]4(C)C[C@](O)(C(=O)C[C@]1(C)O4)[C@@H]3OC2=O
Activity (Gaeumannomyces graminis): inactive | Activity (PC-12): Active | Activity (Salmonella typhi): inactive | Activity (Staphylococcus aureus): inactive | Activity (Verticillium): inactive

COc1cc(O)c2c(c1)[C@@]13O[C@]4(C)C[C@@](O)(C(=O)C[C@@]1(C)O4)[C@H]3OC2=O
Activity (Gaeumannomyces graminis): inactive | Activity (PC-12): Active | Activity (Salmonella typhi): inactive | Activity (Staphylococcus aureus): inactive | Activity (Verticillium): inactive
